Data: patent publication US12454551B2, “Peptides as inhibitors of fibrotic matrix accumulation” (Max-Planck-Gesellschaft zur Förderung der Wissenschaften …, priority 2019, dated 2025)
Structures can show the parent of a compound that is named as a salt. Residues, ends and D or L forms follow the SMILES beside them. No end group written: not given here.

Experiments:
[1] = system: CCl4 induced liver fibrosis in mice; experiment: CCl4 induced liver fibrosis in mice (collagen accumulation in the liver); type: in vivo; conditions: for collagen accumulation in the liver (marker of matrix accumulation): mice, CCl4 for 6 weeks, peptide 25 mg/kg/mouse/day intraperitoneal in NaCl 0.9% from day 32 for 10 days, vs CCl4-treated mice, FIG. 1 and 2
Experimental: FIG. 1 Prevention of fibrosis progression by proline-containing cyclic and amidated linear peptides. Mice were injected for 6 weeks with CCl4 in order to induce liver fibrosis. Starting on day 32 the mice received daily intraperitoneal injections of 25 mg/kg/mouse/day of the peptides in 0.9% NaCl for a total of 10 days. CCl4-treated mice also received NaCl 0.9%. The healthy control group (CT) only received 0.9% NaCl. N=4/10/[…]/8/11/7 in two experiments. The following peptides were tested on CCl4-treated mice: cyclic Pro-Gly-Leu-Gln-Gly-Glu (Cyclic PGLQGE; SEQ ID NO: 6), and compared to two controls: cyclic Pro-Gly-Leu-Asn-Gly-Glu (Cyclic CT1+P: cyclic PGLNGE; SEQ ID NO: 11) and cyclic Pro-Gly-Leu-Hyp-Gly-Glu (Cyclic CT2+P: cyclic PGLOGE; SEQ ID NO: 16). Linear Gly-Leu-Gln-Gly-Glu-NH2 (Linear GLQGE-NH2; SEQ ID NO: 4) was also tested and compared to two controls: linear Gly-Leu-Asn-Gly-Glu-NH2 (Linear CT1—NH2: linear GLNGE-NH2; SEQ ID NO: 9) and linear Gly-Leu-Hyp-Gly-Glu-NH2 (Linear CT2—NH2: linear GLOGE-NH2; SEQ ID NO: 14). * p<0.05. Evaluated by t-test. Data presented as mean+SEM.
FIG. 2 Prevention of fibrosis progression by cyclic peptides and acetylated linear peptides. Mice were injected for 6 weeks with CCl4 in order to induce liver fibrosis. Starting on day 32 the mice received daily intraperitoneal injections of 25 mg/kg/mouse/day of the peptides in 0.9% NaCl for a total of 10 days. CCl4-treated mice also received NaCl 0.9%. The healthy control group (CT) only received 0.9% NaCl. N=5/18/9/9/6/5/4/4 in two experiments. The following peptides were tested on CCl4-treated mice: cyclic Gly-Leu-Gln-Gly-Glu (Cyclic GLQGE; SEQ ID NO: 5), and compared to two controls: cyclic Gly-Leu-Asn-Gly-Glu (Cyclic CT1: cyclic GLNGE; SEQ ID NO: 10) and cyclic Gly-Leu-Hyp-Gly-Glu (Cyclic CT2: cyclic GLOGE; SEQ ID NO: 15). Linear Ac-Gly-Leu-Gln-Gly-Glu (Linear Ac-GLQGE; SEQ ID NO: 3) was also tested and compared to two controls: linear Ac-Gly-Leu-Asn-Gly-Glu (Linear Ac-CT1: linear Ac-GLNGE; SEQ ID NO: 8) and linear Ac-Gly-Leu-Hyp-Gly-Glu (Linear Ac-CT2: linear Ac-GLOGE; SEQ ID NO: 13). * p<0.05, ** p<0.005. Evaluated by t-test. Data presented as mean+SEM.
Mice were injected for 6 weeks with CCl4 in order to induce liver fibrosis. Starting on day 32 the mice received daily intraperitoneal injections of the peptides at a final dose of 25 mg/kg/mouse/day diluted in NaCl 0.9% for a total of 10 days. In these experiments, the following peptides were tested: cyclic peptide Pro-Gly-Leu-Gln-Gly-Glu (SEQ ID NO: 6), cyclic peptide Pro-Gly-Leu-Asn-Gly-Glu (SEQ ID NO: 11), cyclic peptide Pro-Gly-Leu-Hyp-Gly-Glu (SEQ ID NO: 16), linear peptide Gly-Leu-Gln-Gly-Glu-NH2 (SEQ ID NO: 4), linear peptide Gly-Leu-Asn-Gly-Glu-NH2 (SEQ ID NO: 9), linear peptide Gly-Leu-Hyp-Gly-Glu-NH2 (SEQ ID NO: 14).
Mice were injected for 6 weeks with CCl4 in order to induce liver fibrosis. Starting on day 32 the mice received daily intraperitoneal injections of the peptides at a final dose of 25 mg/kg/mouse/day diluted in NaCl 0.9% for a total of 10 days. In these experiments, the following peptides were tested: cyclic peptide Gly-Leu-Gln-Gly-Glu (SEQ ID NO: 5), cyclic peptide Gly-Leu-Asn-Gly-Glu (SEQ ID NO: 10), cyclic peptide Gly-Leu-Hyp-Gly-Glu (SEQ ID NO: 15), linear peptide Ac-Gly-Leu-Gln-Gly-Glu (SEQ ID NO: 3), linear peptide Ac-Gly-Leu-Asn-Gly-Glu (SEQ ID NO: 8), linear peptide Ac-Gly-Leu-Hyp-Gly-Glu (SEQ ID NO: 13).

[2] = system: bleomycin induced lung fibrosis in C57bl/6 mice; experiment: bleomycin induced lung fibrosis in mice (total collagen in the lung); type: in vivo; conditions: intratracheal bleomycin on day 0; 1 mg/mouse/day s.c. from day 11 for 10 days; vs bleomycin alone (p<0.05) or with control peptides
Experimental: FIG. 4 Prevention of fibrosis progression by the cyclic peptide Gly-Leu-Gln-Gly-Glu (SEQ ID NO: 5) (acetate salt). Lung fibrosis was induced in 6-week-old male C57bl/6 mice using intratracheal bleomycin instillation at a dose of 0.005 units in 50 μl on day 0. Starting on day 11, cyclic Gly-Leu-Gln-Gly-Glu (cyclic GLQGE; SEQ ID NO: 5) was injected subcutaneously at a dose of 1 mg/mouse/day in 0.9% NaCl for a total of 10 days. The control group only received daily injections of 0.9% NaCl. The number of animals in the four groups was N=14/10/10/9 in three experiments. The cyclic peptide Gly-Leu-Gln-Gly-Glu (Cyclic GLQGE; SEQ ID NO: 5) (acetate salt) was tested and compared to cyclic Ac-Gly-Leu-Asn-Gly-Glu (Cyclic GLNGE; SEQ ID NO: 10) (acetate salt) and to cyclic Ac-Gly-Leu-Hyp-Gly-Glu (Cyclic GLOGE; SEQ ID NO: 15) (acetate salt), *p<0.05. Evaluated by t-test. Data are presented as mean ±SEM.
The cyclic peptide Gly-Leu-Gln-Gly-Glu (cyclic GLQGE (SEQ ID NO: 5) acetate salt) was tested for its ability in prevention of lung fibrosis in mice. Lung fibrosis was induced in 6-week-old male C57bl/6 mice using intratracheal bleomycin instillation at a dose of 0.005 units in 50 μl 0.9% NaCl on day 0. […]

[3] = system: TGFβ expression in murine hepatocytes; experiment: unstimulated TGFβ expression in murine hepatocytes; type: cell-based; conditions: data not shown
[4] = system: breast cancer cell line MDA-MB-231; experiment: breast cancer model in mice, MDA-MB-231 intratibial (bioluminescence imaging); type: in vivo; conditions: MDA-MB-231 intratibially in CD1 nude mice; 0.1 mg s.c. daily from day 30 for 10 days; read on day 40; vs 0.9% NaCl
Experimental: FIG. 5 Prevention of breast cancer growth by cyclic GLQGE (SEQ ID NO: 5) in form of hydrochloride salt (cyclic GLQGE HCl salt). Cells from the breast cancer cell line MDA-MB-231 were injected intratibially in mice. Starting on day 30, injection with 0.1 mg/mouse/day of the cyclic peptide Gly-Leu-Gln-Gly-Glu (SEQ ID NO: 5) (cyclic GLQGE HCl salt) for 10 days or 0.9% NaCl subcutaneously was performed. On day 40, the size of the tumour was evaluated by bioluminescence imaging (Bioluminescence imaging was performed by detecting photon signal 5 minutes after D-luciferin injection (150 mg/kg) using an “IVIS Lumina II” imaging system. The resulting images were analysed using the software “Living Image”). RLU=relative light units. The number of animals in each group was N=14/7 mice, in two experiments. * p<0.05 as evaluated by t-test. Data are presented as mean+SEM.
The hydrochloride salt of cyclic peptide Gly-Leu-Gln-Gly-Glu (cyclic GLQGE; SEQ ID NO: 5) was tested for its ability in prevention of breast cancer in mice. […] On day 40, the size of the tumor was evaluated by bioluminescence imaging (Bioluminescence imaging was performed by detecting photon signal 5 minutes after D-luciferin injection (150 mg/kg) using an “IVIS Lumina II” imaging system. The resulting images were analyzed using the software “Living Image”). […]

[5] = system: B16 melanoma cancer cells; experiment: B16 melanoma model in mice (tumor weight); type: in vivo; conditions: B16 melanoma cells (10^6) s.c. in mice; 1 mg peptide s.c. on day 7; tumours weighed on day 12
Experimental: FIG. 3 Prevention of cancer growth by cyclic GLQGE (SEQ ID NO: 5) in form of hydrochloride salt (cyclic GLQGE HCl salt). B16 melanoma cancer cells were injected subcutaneously in mice. On day 7, injection with 1 mg of the peptide or 0.9% NaCl subcutaneously was performed. On day 12 mice were euthanized and tumors removed and weighed. N=11/11 mice. Data presented as mean+SEM.
The cyclic peptide Gly-Leu-Gln-Gly-Glu (cyclic GLQGE; SEQ ID NO: 5) in form of hydrochloride salt was tested for its ability in prevention of cancer growth in a melanoma model in mice. B16 melanoma cancer cells (10^6 cells) were injected subcutaneously in mice. On day 7, injection with 1 mg of the cyclic GLQGE peptide (SEQ ID NO: 5) or 0.9% NaCl (control mice) subcutaneously was performed. On day 12 mice were euthanized and tumours removed and weighed. N=11/11 mice. Results are shown on FIG. 3 as mean+SEM. […] Thus, the cyclic peptide Gly-Leu-Gin-Gly-Glu (SEQ ID NO: 5) represents a promising therapeutic drug for use in the treatment of cancer.

| Compound | collagen accumulation in the liver (marker of matrix accumulation) [1] | unstimulated TGFβ expression [3] | further results |
| --- | --- | --- | --- |
| PGLQGE [SEQ ID NO: 6] | able to significantly reduce collagen accumulation |  |  |
| CC(C)C[C@@H]1NC(=O)CNC(=O)[C@H](CCC(=O)O)NC(=O)CNC(=O)[C@H](CCC(N)=O)NC1=O [SEQ ID NO: 5 (acetate salt), Gly-Leu-Gln-Gly-Glu] (HELM PEPTIDE1{E.G.L.Q.G}$PEPTIDE1,PEPTIDE1,1:R1-5:R2$$$V2.0) |  |  | total amount of collagen in the lung [2]: significantly diminished |
| Gly-Leu-Gln-Gly-Glu (GLQGE; SITE 1..5 peptide bond between the amino-terminus and the carboxyl-terminus; listed as Homo sapiens) [SEQ ID NO: 5] | able to significantly reduce collagen accumulation |  | efficiency in reducing collagen accumulation in comparison to the cyclic peptide with proline Pro-Gly-Leu-Gln-Gly-Glu (SEQ ID NO: 6) ([1]; CCl4 liver fibrosis in mice, comparison of Y-axis values of FIGS. 1 and 2, p<0.001): more efficient in reducing collagen accumulation; inhibitory effect on collagen accumulation compared to linear Gly-Leu-Gln-Gly-Glu-NH2 (SEQ ID NO: 4) or Ac-Gly-Leu-Gln-Gly-Glu (SEQ ID NO: 3) ([1]; chemically induced chronic liver damage in mice): larger inhibitory effect |
| CC(C)C[C@@H]1NC(=O)CNC(=O)[C@H](CCC(=O)O)NC(=O)CNC(=O)[C@@H]2C[C@@H](O)CN2C1=O [SEQ ID NO: 15, Gly-Leu-Hyp-Gly-Glu, reference compound] (HELM PEPTIDE1{E.G.L.[Hyp].G}$PEPTIDE1,PEPTIDE1,1:R1-5:R2$$$V2.0) | failed to inhibit collagen accumulation |  |  |
| CC(C)C[C@@H]1NC(=O)CNC(=O)[C@H](CCC(=O)O)NC(=O)CNC(=O)[C@H](CC(N)=O)NC1=O [SEQ ID NO: 10, Gly-Leu-Asn-Gly-Glu, reference compound] (HELM PEPTIDE1{E.G.L.N.G}$PEPTIDE1,PEPTIDE1,1:R1-5:R2$$$V2.0) | failed to inhibit collagen accumulation |  |  |
| Ac-GLQGE [SEQ ID NO: 3, Ac-Gly-Leu-Gln-Gly-Glu] | able to significantly reduce CCl4-induced collagen accumulation |  |  |
| CC(C)C[C@H](NC(=O)CN)C(=O)N1C[C@@H](O)C[C@H]1C(=O)NCC(=O)N[C@@H](CCC(=O)O)C(N)=O [SEQ ID NO: 14, Gly-Leu-Hyp-Gly-Glu-NH2] |  | had no effect |  |
| GLQGE-NH2 [SEQ ID NO: 4, Gly-Leu-Gln-Gly-Glu-NH2] | able to significantly reduce CCl4-induced collagen accumulation | efficiently inhibits |  |
| CC(C)C[C@@H]1NC(=O)CNC(=O)[C@H](CCC(=O)O)NC(=O)CNC(=O)[C@H](CCC(N)=O)NC1=O [SEQ ID NO: 5 (HCl salt), Gly-Leu-Gln-Gly-Glu] (HELM PEPTIDE1{E.G.L.Q.G}$PEPTIDE1,PEPTIDE1,1:R1-5:R2$$$V2.0) |  |  | size of the tumor by bioluminescence imaging [4]: significantly (p<0.05) diminished; diminution of cancer size (tumor weight) as compared to control mice [5]: approximately 72% |
| GLNGE-NH2 [SEQ ID NO: 9, Gly-Leu-Asn-Gly-Glu-NH2] |  | had no effect |  |
